The text below walks through data of patent US11998539B2, “Substituted aminoquinolones as DGKalpha inhibitors for immune activation” (Bayer Aktiengesellschaft, priority 2019, dated 2024).

One assay concerns the target T1, DGKα (Homo sapiens (Human), UniProt P23743). The assay is described as follows: Human DGKα kinase activity inhibition assay (ADP-Glo). The format is biochemical. Conditions: recombinant full-length human DGKα, 55 μM ATP, 7 μM 1,2-dioleoyl-sn-glycerol, read-out: IC50 values of examples in in vitro human DGKa kinase activity inhibition assays. In short, it runs like this:
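Recombinant full-length human DGKα (C-terminal FLAG, from insect cells) phosphorylated 1,2-dioleoyl-sn-glycerol presented in octyl-glucopyranoside micelles. ADP formed was quantified by ADP-Glo luminescence. Compounds were added from 100-fold DMSO stocks.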
(ADP-Glo first removes unused ATP, then detects ADP through luciferase.)
Target sequence in this assay (P23743 other isoform, or with tags, fused parts or gaps): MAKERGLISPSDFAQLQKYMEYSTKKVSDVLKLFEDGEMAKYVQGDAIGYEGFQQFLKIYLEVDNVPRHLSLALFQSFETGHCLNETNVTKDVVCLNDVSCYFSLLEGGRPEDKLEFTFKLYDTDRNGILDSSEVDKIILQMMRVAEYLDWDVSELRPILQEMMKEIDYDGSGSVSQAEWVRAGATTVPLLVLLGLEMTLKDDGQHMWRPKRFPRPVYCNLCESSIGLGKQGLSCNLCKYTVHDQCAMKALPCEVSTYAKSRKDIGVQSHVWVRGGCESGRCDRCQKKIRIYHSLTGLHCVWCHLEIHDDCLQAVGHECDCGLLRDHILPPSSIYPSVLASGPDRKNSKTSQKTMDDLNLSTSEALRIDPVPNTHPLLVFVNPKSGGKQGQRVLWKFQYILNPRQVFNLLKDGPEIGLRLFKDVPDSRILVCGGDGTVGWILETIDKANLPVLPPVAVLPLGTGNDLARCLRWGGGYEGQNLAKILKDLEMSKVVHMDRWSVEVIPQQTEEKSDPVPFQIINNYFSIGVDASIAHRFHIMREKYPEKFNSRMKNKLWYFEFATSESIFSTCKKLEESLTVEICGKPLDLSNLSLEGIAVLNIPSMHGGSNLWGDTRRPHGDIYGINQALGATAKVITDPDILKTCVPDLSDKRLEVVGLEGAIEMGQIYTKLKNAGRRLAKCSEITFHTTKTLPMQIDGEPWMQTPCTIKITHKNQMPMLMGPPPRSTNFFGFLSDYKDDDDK
Turning to `COc1ccc(C2CCN(c3c(C#N)c(=O)n(C)c4cc(-c5ccccc5)ccc34)CC2)cc1` [Example 92, 4-[4-(4-methoxyphenyl)piperidin-1-yl]-1-methyl-2-oxo-7-phenyl-1,2-dihydroquinoline-3-carbonitrile], the half-maximal inhibitory concentration (IC50) (usually the point on the concentration scale where inhibition reaches its midpoint) was 9.8 nM.
On to `Cc1ccc2oc(C3(C)CCN(c4c(C#N)c(=O)n(C)c5cc(OC6COC6)ccc45)CC3)nc2c1` [Example 241, 1-methyl-4-[4-methyl-4-(5-methyl-1,3-benzoxazol-2-yl)piperidin-1-yl]-7-[(oxetan-3-yl)oxy]-2-oxo-1,2-dihydroquinoline-3-carbonitrile], for which the IC50 came out at 2.5 nM.
Regarding `Cn1c(=O)c(C(N)=O)c(N2CCC(c3nc4ccccc4o3)CC2)c2cc(F)ccc21` [Example 299, 4-[4-(1,3-benzoxazol-2-yl)piperidin-1-yl]-6-fluoro-1-methyl-2-oxo-1,2-dihydroquinoline-3-carboxamide], the concentration for half-maximal inhibition (IC50) came out at 1 nM.
In the case of `Cc1ccc2oc(C3CCN(c4c(C#N)c(=O)n(C)c5cc(C(F)(F)F)ccc45)CC3)nc2c1` [Example 289, 1-methyl-4-[4-(5-methyl-1,3-benzoxazol-2-yl)piperidin-1-yl]-2-oxo-7-(trifluoromethyl)-1,2-dihydroquinoline-3-carbonitrile], the IC50 came out at 8.3 nM.
On the same count and under the same terms, the same measure for `Cc1ccc2oc(C3(C)CCN(c4c(C#N)c(=O)n(C)c5c(Br)cccc45)CC3)nc2c1C(F)(F)F` [Example 233, 8-bromo-1-methyl-4-{4-methyl-4-[5-methyl-4-(trifluoromethyl)-1,3-benzoxazol-2-yl]piperidin-1-yl}-2-oxo-1,2-dihydroquinoline-3-carbonitrile]: 1270 nM; for `Cn1c(=O)c(C#N)c(N2CCC(c3cc(Cl)cc(Cl)c3)CC2)c2ccccc21` [Example 84, 4-[4-(3,5-dichlorophenyl)piperidin-1-yl]-1-methyl-2-oxo-1,2-dihydroquinoline-3-carbonitrile]: 52 nM; for `Cc1ccc2oc(C3CCN(c4c(C(N)=O)c(=O)n(C)c5c(Br)cccc45)CC3)nc2c1` [Example 493, 8-bromo-1-methyl-4-[4-(5-methyl-1,3-benzoxazol-2-yl)piperidin-1-yl]-2-oxo-1,2-dihydroquinoline-3-carboxamide]: 80 nM.
With `Cn1c(=O)c(C#N)c(N2CCC(c3nc4ccc(Br)cc4s3)CC2)c2ccccc21` [Example 14, 4-[4-(6-bromo-1,3-benzothiazol-2-yl)piperidin-1-yl]-1-methyl-2-oxo-1,2-dihydroquinoline-3-carbonitrile], the IC50 amounted to 4.4 nM.
Regarding `Cc1ccc2oc(C3CCN(c4c(C(N)=O)c(=O)n(C)c5c(Cl)cccc45)CC3)nc2c1` [Example 319, 8-chloro-1-methyl-4-[4-(5-methyl-1,3-benzoxazol-2-yl)piperidin-1-yl]-2-oxo-1,2-dihydroquinoline-3-carboxamide], the half-maximal inhibitory concentration (IC50) worked out at 74 nM.
Turning to `Cn1c(=O)c(C#N)c(N2CCC(C)(c3nc4ccccc4o3)CC2)c2ccc(C(F)(F)F)cc21` [Example 292, 4-[4-(1,3-benzoxazol-2-yl)-4-methylpiperidin-1-yl]-1-methyl-2-oxo-7-(trifluoromethyl)-1,2-dihydroquinoline-3-carbonitrile], the IC50 was 3.2 nM.
Regarding `CCC1(c2nc3cc(C)ccc3o2)CCN(c2c(C#N)c(=O)n(C)c3cc(Br)ccc23)CC1` [Example 141, 7-bromo-4-[4-ethyl-4-(5-methyl-1,3-benzoxazol-2-yl)piperidin-1-yl]-1-methyl-2-oxo-1,2-dihydroquinoline-3-carbonitrile], the IC50 was determined as 5.6 nM.
With `Cc1ccc2oc(C3CCN(c4c(C(N)=O)c(=O)n(C)c5cc(OC6CCOC6)c(C6(C(F)(F)F)CC6)cc45)CC3)nc2c1` (racemic) [Example 518, (rac)-1-methyl-4-[4-(5-methyl-1,3-benzoxazol-2-yl)piperidin-1-yl]-2-oxo-7-[(oxolan-3-yl)oxy]-6-[1-(trifluoromethyl)cyclopropyl]-1,2-dihydroquinoline-3-carboxamide], the IC50 came out at 596 nM.
Consider `Cn1c(=O)c(C(N)=O)c(N2CCC(c3nc4ccccc4o3)CC2)c2cccc(Cl)c21` [Example 309, 4-[4-(1,3-benzoxazol-2-yl)piperidin-1-yl]-8-chloro-1-methyl-2-oxo-1,2-dihydroquinoline-3-carboxamide], for which the IC50 is 101 nM.
Turning to `Cn1cc(C2CCN(c3c(C#N)c(=O)n(C)c4ccccc34)CC2)cn1` [Example 323, 1-methyl-4-[4-(1-methyl-1H-pyrazol-4-yl)piperidin-1-yl]-2-oxo-1,2-dihydroquinoline-3-carbonitrile], the IC50 stood at 326 nM.
Regarding `Cc1ccc2oc(C3(C)CCN(c4c(C#N)c(=O)n(C)c5cc(OC6CCC6)ccc45)CC3)nc2c1` [Example 247, 7-(cyclobutyloxy)-1-methyl-4-[4-methyl-4-(5-methyl-1,3-benzoxazol-2-yl)piperidin-1-yl]-2-oxo-1,2-dihydroquinoline-3-carbonitrile], the IC50 was found to be 6.9 nM.
On to `COc1ccc2c(N3CCC(c4nc5cc(F)c(F)cc5o4)CC3)c(C#N)c(=O)n(C)c2c1` [Example 254, 4-[4-(5,6-difluoro-1,3-benzoxazol-2-yl)piperidin-1-yl]-7-methoxy-1-methyl-2-oxo-1,2-dihydroquinoline-3-carbonitrile], for which the IC50 turned out to be 15 nM.
On to `Cn1c(=O)c(C(N)=O)c(N2CCC(C)(c3nc4ccccc4o3)CC2)c2ccc(Cl)cc21` [Example 297, 4-[4-(1,3-benzoxazol-2-yl)-4-methylpiperidin-1-yl]-7-chloro-1-methyl-2-oxo-1,2-dihydroquinoline-3-carboxamide], for which the IC50 stood at 0.6 nM.

Another assay concerns the target T1, DGKα.
Experiment: not given
The note with it: prior art; cited from earlier work.
Target sequence in this assay (P23743 whole entry, species assumed): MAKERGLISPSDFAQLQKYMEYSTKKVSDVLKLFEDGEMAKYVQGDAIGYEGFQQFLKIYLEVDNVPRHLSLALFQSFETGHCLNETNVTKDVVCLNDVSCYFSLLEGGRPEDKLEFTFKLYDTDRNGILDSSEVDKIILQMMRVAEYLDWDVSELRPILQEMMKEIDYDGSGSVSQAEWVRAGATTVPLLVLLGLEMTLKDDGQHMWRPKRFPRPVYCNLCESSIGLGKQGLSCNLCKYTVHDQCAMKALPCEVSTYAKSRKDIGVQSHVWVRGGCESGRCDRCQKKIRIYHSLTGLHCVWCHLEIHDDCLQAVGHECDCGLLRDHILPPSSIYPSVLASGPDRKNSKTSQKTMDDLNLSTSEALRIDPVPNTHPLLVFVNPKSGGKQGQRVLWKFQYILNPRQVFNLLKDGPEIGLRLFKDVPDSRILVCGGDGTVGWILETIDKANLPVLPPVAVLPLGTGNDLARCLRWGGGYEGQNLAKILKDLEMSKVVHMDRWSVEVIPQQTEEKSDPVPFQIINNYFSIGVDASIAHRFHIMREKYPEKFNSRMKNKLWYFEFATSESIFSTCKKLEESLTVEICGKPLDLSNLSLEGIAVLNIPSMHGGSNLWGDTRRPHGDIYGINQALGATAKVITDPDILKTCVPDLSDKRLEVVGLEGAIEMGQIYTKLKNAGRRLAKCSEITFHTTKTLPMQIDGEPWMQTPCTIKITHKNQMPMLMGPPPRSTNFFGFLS
For the molecule `O=C1/C(=C\C=C\c2ccco2)SC(=S)N1NS(=O)(=O)c1ccccc1` [CU-3], the “inhibitory activity on DGKα” value was “sub-micromolar”.
On to `Cc1ccc2c(C(=O)CN3CCN(C(=O)c4ccco4)CC3)c(C)[nH]c2c1` [AMB639752], for which the “inhibitory activity on DGKα” value is listed as “micromolar”.
As to `Cc1nc2sccn2c(=O)c1CCN1CCC(=C(c2ccc(F)cc2)c2ccc(F)cc2)CC1` [Ritanserin], the “inhibitory activity on DGKα” value was “comparable activity”.

The subject of a further assay is intracranially injected GBM tumors.
Experiment: not given
The note with it: concurrent administration; Dominguez et al. 2013; cited from earlier work.
In the case of `Cc1nc2sccn2c(=O)c1CCN1CCC(=C(c2ccccc2)c2ccc(F)cc2)CC1` [Example R59022], the “growth of intracranially injected GBM tumors” value is given as “decreased growth”.
